The source of these data is publication PMC4721062, “Oxadiazole-2-oxides may have other functional targets, in addition to SjTGR, through which they cause mortality in Schistosoma japonicum” (Parasites & Vectors, 2016).

Series [1] is described as follows: Cytotoxicity assay on Hela cells (MTT). The series is classed as cell-based. As to conditions: human. The procedure: Cytotoxicity assays were performed using Hela cells. Cells in the exponential growth phase were collected by centrifugation and a concentration of 4–5 × 10^4/mL was created. 100 μL of the cell suspension was added to each well of a 96-well plate and cultured overnight at 37 °C in a humid atmosphere with 5 % CO2. Oxadiazole-2-oxides (at 10, 20, 40, 80 and 160 μM) were added. Each concentration was assayed in triplicate, and control wells (no cells and no drugs) were assayed at the same time. The “no cell” control wells only contained RPMI 1640 medium, MTT, DMSO, and oxadiazole-2-oxides. The “no drug” control wells contained the Hela cells, RPMI 1640 medium, MTT and DMSO. The cells were cultured for 48 h at 37 °C in a humid atmosphere with 5 % CO2. Then, 20 μL of 5 mg/mL MTT was added to each well and the culture conditions were maintained for 4 h. After this point, the medium was removed and 150 μL DMSO was added into each well to dissolve any crystallisation. The value of absorbance at 570 nm of each well was measured (at 570 nm) with a microplate reader to assess the toxic effect of the oxadiazole-2-oxides on the vertebrate cells.

Series [2] has as its system adult S. japonicum. The series is described as follows: microbe, parasite or virus in culture. Type of series: cell-based. Conditions: adult worms. An outline of the steps: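 Adult worm pairs recovered by portal perfusion from ICR mice 35 days after infection with 50 cercariae, cultured in RPMI 1640 (pH 7.5, 20 mM HEPES, 10% FBS) at 37 °C, 5% CO2. Oxadiazole-2-oxides at 10, 25, 50, 100 μM; motility and survival scored microscopically at 24, 48, 72 h, death being no movement over 2 min; three independent experiments averaged.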

Series [3] relates to adult S. japonicum in mice. The series is described as follows: Treatment of infected mice at adult worm stage. Type of series: in vivo, Schistosoma japonicum (ICR mice). The procedure:
The abdominal skin of each mouse (ICR, female, 22–24 g) was exposed to 20 S. japonica cercariae (as described above). The mice were intraperitoneally injected with 10 mg/kg oxadiazole-2-oxides daily for 5 days, beginning either 7 or 35 days post-infection. Control mice were treated with 10 mg/kg of the carrier medium. All mice were sacrificed 42 days post-infection. The worm burden of each mouse was confirmed by counting the number of worms observed from a portal vein perfusion. The mouse livers were digested overnight with 5 % potassium hydroxyl solution at 37 °C and the eggs in the liver tissue were counted under an inverted phase contrast microscope. The worm and egg reduction rates were calculated using the following formulas: Wormreductionrate%=meannumberofadultwormspermouseincontrolgroup−meannumberofadultwormspermouseinexperimentalgroup/meannumberofadultwormspermouseincontrolgroup. Eggreductionrate%=meannumberofeggspermouseincontrolgroup−meannumberofeggspermouseinexperimentalgroup/meannumberofeggspermouseincontrolgroup.

Series [4] concerns the target T1, recombinant SjTGR (Schistosoma japonicum, UniProt B5THG7).
T1 sequence (B5THG7 1-596): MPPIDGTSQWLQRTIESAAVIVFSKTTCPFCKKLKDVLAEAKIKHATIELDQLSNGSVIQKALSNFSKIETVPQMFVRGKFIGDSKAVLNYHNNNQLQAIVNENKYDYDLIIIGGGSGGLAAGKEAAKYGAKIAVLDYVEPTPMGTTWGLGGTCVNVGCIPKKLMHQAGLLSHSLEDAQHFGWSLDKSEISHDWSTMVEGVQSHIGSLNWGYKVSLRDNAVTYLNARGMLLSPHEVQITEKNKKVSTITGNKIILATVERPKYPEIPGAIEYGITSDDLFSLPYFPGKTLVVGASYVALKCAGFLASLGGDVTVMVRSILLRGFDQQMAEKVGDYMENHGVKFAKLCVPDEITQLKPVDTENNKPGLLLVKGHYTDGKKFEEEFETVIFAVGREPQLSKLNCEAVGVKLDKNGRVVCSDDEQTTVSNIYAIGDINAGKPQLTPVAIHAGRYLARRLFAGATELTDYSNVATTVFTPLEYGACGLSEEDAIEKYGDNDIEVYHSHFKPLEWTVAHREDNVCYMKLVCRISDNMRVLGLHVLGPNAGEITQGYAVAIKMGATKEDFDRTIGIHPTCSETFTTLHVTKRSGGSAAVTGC
Description: Inhibition of TrxR activity of recombinant SjTGR (DTNB assay). As to conditions: IC50 of SjTGR, 50 nM SjTGR, 1 mM NADPH, 15 min preincubation, DTNB reduction. Type of series: biochemical. An outline of the steps: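 SjTGR (50 nM) preincubated 15 min at room temperature with 1 mM NADPH and oxadiazole-2-oxides (2-20 μM). Reaction started with potassium phosphate pH 7.4, 10 mM EDTA, 100 μM NADPH, 3 mM DTNB; A412 increase followed over first 2 min, triplicates.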

[5] abbreviates: Schistosoma japonicum, 24 h, read-out: Killing activity 24hr.
Setting [6] is: Schistosoma japonicum, 48 h, read-out: Killing activity 48hr.
[7] abbreviates: Schistosoma japonicum, 72 h, read-out: Killing activity 72hr.
Setting [8] is: mice, 10 mg/kg i.p. daily for 5 days from day 35 post-infection, sacrificed day 42.

SMILES strings stand for the structures. Read-outs that look alike come from different tables or passages of the source. A value given as a limit tells only on which side of the number the result lay.

As usually defined, the viability is the share of living cells, or the viability signal relative to a control. Lower therefore signals a greater loss of cells. As a reminder, the mortality is the percentage killed. The IC50 is the concentration that gives 50% inhibition.

`O=C(C1CCCCC1)N1CC(=O)N2CCc3ccccc3C2C1` (centres unmarked) [PZQ, praziquantel, reference compound] returned a viability at 72 h, 80 µM in series [1] of 76%. The killing at 25 µM in series [2] (Schistosoma japonicum, 25 μM, 24 h, read-out: Killing activity 24hr) is 25%; in series [2] (Schistosoma japonicum, 25 μM, 48 h, read-out: Killing activity 48hr), 25%; in series [2] (Schistosoma japonicum, 25 μM, 72 h, read-out: Killing activity 72hr), 62.5%. In addition, in series [2] (Schistosoma japonicum, 25 μM, 24 h, read-out: Mortality of adult worms), the mortality at 25 µM was found to be 25 ± 7.8%. Moreover, the killing at 50 µM in series [2] (setting [5]) turned out to be 25%; in series [2] (setting [6]) it was 37.5%; in series [2] (setting [7]), 62.5%. Further, the killing at 100 µM amounted to 37.5% in series [2] (setting [5]), 50% in series [2] (setting [6]) and 87.5% in series [2] (setting [7]). Further, the “Killing activity 24hr” value in series [2] (10 μM, 24 h) is 25.0%D. In series [2] (10 μM, 48 h), the “Killing activity 48hr” value was determined as 25.0%D. Besides, in series [2] (10 μM, 72 h), the “Killing activity 72hr” value amounted to 37.5%D. In addition, the “Reduction in the female worms” value in series [3] (mice treated at adult worm stage (data not shown)) is 60.5%. The “Number of eggs per gram of liver (Mean ± SD)” value in series [3] (setting [8]) worked out at 3721.5 ± 1600.6. Besides, the “Number of worms (Mean ± SD)” value in series [3] (setting [8]) was 3.3 ± 1.7. In addition, the Egg reduction rate in series [3] (mice, 10 mg/kg i.p. daily for 5 days from day 35 post-infection, versus control) is reported as 53.7 (P < 0.01^*) %. For the same compound, in series [3] (mice, 10 mg/kg i.p. daily for 5 days from day 35 post-infection, versus control, 10 mg/kg), the Worm reduction rate is 72.3 (P < 0.01^*) %. In addition, in series [4], the half-maximal inhibitory concentration (IC50) is above 20 µM.
